Experimental data as given in patent publication US20020137929A1, “1 - (3-heterocyclylphenyl) isothiourea, -isourea, -guanidine and -amidine herbicidal agents” (Intellectual Property Department, BASF Aktiengesellschaft, priority 1998, published 2002).

Tests used:
GLXMA (Soybean) [1] = test: Preemergence herbicidal evaluation; assay type: in vivo, Glycine max; details: rated 4-5 weeks after treatment
From the text: (§1) Results of herbicide evaluation are expressed on a rating scale (0-9). The scale is based upon a visual observation of plant stand, vigor, malformation, size, chlorosis and overall plant appearance as compared with a control.
(§2) The preemergence herbicidal activity of the test compounds of the present invention is exemplified by the following tests in which the seeds of a variety of monocotyledonous and dicotyledonous plants are separately mixed with potting soil and planted on top of approximately one inch of soil in separate pint cups. After planting, the cups are sprayed with the selected aqueous acetone solution containing test compound in sufficient quantity to provide the equivalent of about 0.0156 to 0.500 kg per hectare of test compound per cup. The treated cups are then placed on greenhouse benches, watered and cared for in accordance with conventional greenhouse procedures. From four to five weeks after treatment, the tests are terminated and each cup is examined and rated according to the rating system provided in Example 37.
(§3) The compounds evaluated are reported by compound number given in Example 37.

GALAP (Galium) = test: Postemergence herbicidal evaluation; assay type: in vivo, Galium aparine; details: postemergence
In short: (§4)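 Visual 0-9 injury score (stand, vigor, malformation, size, chlorosis, appearance vs untreated) taken four to five weeks post-spray, averaged across repeat tests. Test plants about two weeks old; foliar spray of acetone/water (1:1) with 0.5% surfactant delivering ~0.0156-0.500 kg active/ha.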

ABUTH (Velvetleaf) = test: Postemergence herbicidal evaluation; assay type: in vivo, Abutilon theophrasti; details: postemergence
In short: as §4

[2] = system: IPOSS (Morningglory Spp.); test: Preemergence herbicidal evaluation; assay type: in vivo, Ipomoea Spp.; details: rated 4-5 weeks after treatment
From the text: as §1, §2, §3

GLXMA (Soybean) [3] = test: Postemergence herbicidal evaluation; assay type: in vivo, Glycine max
Protocol: (§5) In the tests, seedling plants are grown in jiffy flats for about two weeks. The test compounds are dispersed in 50/50 acetone/water mixtures containing 0.5% TWEEN®20, a polyoxyethylene sorbitan monolaurate surfactant of Atlas Chemical Industries, in sufficient quantities to provide the equivalent of about 0.0156 kg to 0.500 kg per hectare of active compound when applied to the plants through a spray nozzle operating at 40 psi for a predetermined time. After spraying, the plants are placed on greenhouse benches and are cared for in accordance with conventional greenhouse procedures. From four to five weeks after treatment, the seedling plants are examined and rated according to the rating system set forth below. Where more than one test is involved for a given compound, the data are averaged.
(§6) Plant species employed in these evaluations are reported by header abbreviation, common name and scientific name.
as §1

MOOVA (Monochoria) = test: Postemergence weed control under flooded paddy conditions; assay type: in vivo, Monochoria vaginalis; details: postemergence weeds, 3-4 weeks after treatment
In short: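 Weeds 3 to 5 cm tall and rice seedlings at the 1.5 to 2.5 leaf stage were flooded, with water held 1.5 to 3 cm above the soil. Compounds in 50/50 v/v aqueous/acetone went into the flood water at about 0.0313 to 0.500 kg/ha. Visual 0-9 ratings versus control were made 3 to 4 weeks later.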

[4] = system: IPOSS (Morningglory Spp.); test: Postemergence herbicidal evaluation; assay type: in vivo, Ipomoea Spp.
Protocol: as §5, §6, §1

CN1C(=O)C(F)SC1=Nc1cc(N2C(=O)C3=C(CCCC3)C2=O)c(F)cc1Cl (centres unmarked) [Compound 5, N-{4-chloro-2-fluoro-5-[(5-fluoro-3-methyl-4-oxo-2-thiazolidinylidene)amino]phenyl}-1-cyclohexene-1,2-dicarboximide]
GLXMA preemergence herbicidal rating (GLXMA (Soybean) [1]; rate 0.0625 kg/ha): 1.0 | GLXMA preemergence herbicidal rating (GLXMA (Soybean) [1]; rate 0.1250 kg/ha): 1.0 | GLXMA preemergence herbicidal rating (GLXMA (Soybean) [1]; rate 0.2500 kg/ha): 2.0 | GLXMA preemergence herbicidal rating (GLXMA (Soybean) [1]; rate 0.5000 kg/ha): 2.0 | GALAP herbicidal rating (GALAP (Galium); rate 0.0157 kg/ha): 0.0 | GALAP herbicidal rating (GALAP (Galium); rate 0.0313 kg/ha): 2.0 | GALAP herbicidal rating (GALAP (Galium); rate 0.0625 kg/ha): 8.0 | GALAP herbicidal rating (GALAP (Galium); rate 0.1250 kg/ha): 9.0 | GALAP herbicidal rating (GALAP (Galium); rate 0.2500 kg/ha): 9.0 | GALAP herbicidal rating (GALAP (Galium); rate 0.5000 kg/ha): 9.0 | ABUTH herbicidal rating (ABUTH (Velvetleaf); rate 0.0157 kg/ha): 1.0 | ABUTH herbicidal rating (ABUTH (Velvetleaf); rate 0.0313 kg/ha): 2.0 | ABUTH herbicidal rating (ABUTH (Velvetleaf); rate 0.0625 kg/ha): 9.0 | ABUTH herbicidal rating (ABUTH (Velvetleaf); rate 0.1250 kg/ha): 9.0 | ABUTH herbicidal rating (ABUTH (Velvetleaf); rate 0.2500 kg/ha): 9.0 | ABUTH herbicidal rating (ABUTH (Velvetleaf); rate 0.5000 kg/ha): 9.0 | IPOSS preemergence herbicidal rating ([2]; rate 0.0625 kg/ha): 0.0 | IPOSS preemergence herbicidal rating ([2]; rate 0.1250 kg/ha): 0.0 | IPOSS preemergence herbicidal rating ([2]; rate 0.2500 kg/ha): 0.0 | IPOSS preemergence herbicidal rating ([2]; rate 0.5000 kg/ha): 0.0 | GLXMA herbicidal rating (GLXMA (Soybean) [3]; rate 0.0157 kg/ha): 3.0 | GLXMA herbicidal rating (GLXMA (Soybean) [3]; rate 0.0313 kg/ha): 3.0 | GLXMA herbicidal rating (GLXMA (Soybean) [3]; rate 0.0625 kg/ha): 3.0 | GLXMA herbicidal rating (GLXMA (Soybean) [3]; rate 0.1250 kg/ha): 4.0 | GLXMA herbicidal rating (GLXMA (Soybean) [3]; rate 0.2500 kg/ha): 4.0 | GLXMA herbicidal rating (GLXMA (Soybean) [3]; rate 0.5000 kg/ha): 4.5 | Herbicidal rating MOOVA (MOOVA (Monochoria); rate 0.1250 kg/ha): 1.0 | Herbicidal rating MOOVA (MOOVA (Monochoria); rate 0.2500 kg/ha): 2.0 | Herbicidal rating MOOVA (MOOVA (Monochoria); rate 0.5000 kg/ha): 4.0 | IPOSS herbicidal rating ([4]; rate 0.0157 kg/ha): 0.0 | IPOSS herbicidal rating ([4]; rate 0.0313 kg/ha): 1.0 | IPOSS herbicidal rating ([4]; rate 0.0625 kg/ha): 2.0 | IPOSS herbicidal rating ([4]; rate 0.1250 kg/ha): 4.0 | IPOSS herbicidal rating ([4]; rate 0.2500 kg/ha): 9.0 | IPOSS herbicidal rating ([4]; rate 0.5000 kg/ha): 9.0
